Assay results as given in US12508262B2, “Methods of using ALK2 inhibitors” (Keros Therapeutics, Inc., priority 2020, dated 2025).

Assays:
[1] = tested on: healthy volunteers; experiment: Phase 1 single- and multiple-ascending dose study, safety and tolerability; format: in vivo, human
Source text: A total of 131 healthy, males aged 18 to 60 years and post-menopausal females aged 45 to 60 years, participated in this study.
(§1) The primary objectives of this study were to a) evaluate safety and tolerability of escalating doses of the compound of Formula I-11 administered as single and multiple oral doses in healthy male volunteers and healthy postmenopausal female volunteers and b) evaluate the PK parameters following escalating doses of the compound of Formula I-11 administered as single and multiple oral doses. The secondary objective of this study was to evaluate the pharmacodynamic (PD) parameters following escalating doses of the compound of Formula I-11 administered as single and multiple oral doses. This study was conducted in two parts.
Part 1 included 80 participants (10 cohorts of 8 participants each). Male and female participants who met the eligibility criteria were randomly assigned, in a ratio of 3:1 to receive the compound of Formula I-11 or matching placebo, N=6 and 2 per dose cohort, respectively. Participant enrollment included […] males and 12.5% females (postmenopausal). The IMP formulation used in Cohorts 1 through 6 was an oral capsule (doses of 1, 3, 10, 30, 100, or 300 mg capsule formulation). An oral liquid formulation was evaluated in Cohorts 7 through 10 (doses of 30, 100, 300 or 450 mg liquid formulation).
(§2) Participants in Part 1 received a single oral dose of the compound of Formula I-11 or placebo on Day 1 and serial PK samples were collected. Baseline assessments were performed on day −1 prior to dosing. Samples were collected for determination of pharmacodynamic parameters at pre-dose daily and up to 24 hours post dose (day 2) after a single oral dose of the compound of Formula I-11. Participants remained at the study site for observation for 24 hours post-dose through the PK sample collection on Day 2. Participants returned to the site for the 48, 72, and 120-hour post-dose sample collection on Days 3, 4, and 6. Safety was evaluated by a Safety Review Committee prior to escalation to the next dose level cohort.
Part 2, Cohorts 1 through 4, included 41 participants (4 cohorts of 10 participants each and 1 additional placebo participant in Cohort 1). Male and female participants who met the eligibility criteria were randomly assigned at a ratio of 4:1 to receive either the compound of Formula I-11 oral liquid formulation or matching placebo, N=8 and 2 per dose cohort respectively. Forty (97.6%) males and 1 (2.4%) female (placebo) participant were enrolled.
(§3) Participants in Part 2, Cohorts 1 through 3, received a daily oral dose of the compound of Formula I-11 (50, 100, or 200 mg liquid formulation respectively) or placebo for 7 days. A daily oral dose of the compound of Formula I-11 or placebo in participants in Part 2, Cohort 4 (350 mg liquid formulation) was planned for 14 days but was discontinued early in all subjects, either by the Investigator because of AEs, or by the Sponsor. A decision was made by the Sponsor to discontinue dosing of the entire cohort based on the frequency of AEs and laboratory abnormalities after Day 9. In Cohort 4, participants on the compound of Formula I-11 received daily oral dosing of 350 mg for up to 7 days; one placebo participant received daily oral dosing for 9 days. Samples were collected for determination of pharmacodynamic parameters at pre-dose daily and to 24 hours post dose (day 8) while on drug. Daily trough PK samples were collected for the determination of steady-state from Day 2 to Day 12 or 13. Participants returned to the site on Day 30 for an end-of-study visit. Safety was evaluated by a Safety Review Committee prior to escalation to the next dose level cohort.
Part 2, MAD Cohort 5 (C5) participants received either the compound of Formula I-11, 100 mg (n=8) or placebo (n=2) on Days 1, 2, 3, 4, 5, 6, 7. The last dose was administered on the morning of Day 7. […]

[2] = Phase 1 single- and multiple-ascending dose study, PK parameters; format: in vivo, human
Source text: as §1
as §2, with “Participants remained at the study site for observation for 24 hours post-dose through the PK sample collection on Day 2. Participants returned to the site for the 48, 72, and 120-hour post-dose sample collection on Days 3, 4, and 6.” left out
Participants in Part 2, Cohorts 1 through 3, received a daily oral dose of the compound of Formula I-11 (50, 100, or 200 mg liquid formulation respectively) or placebo for 7 days. […] Safety was evaluated by a Safety Review Committee prior to escalation to the next dose level cohort. […]

[3] = tested on: healthy volunteers; experiment: Phase 1 single- and multiple-ascending dose study, pharmacodynamic endpoints (serum iron, transferrin saturation, ferritin, hepcidin, reticulocyte hemoglobin, cholesterol); format: in vivo, human; conditions: for transferrin saturation, mean percent change from baseline / serum iron, mean change from baseline: Day 4, multiple ascending doses; for transferrin saturation, mean percent change from baseline: placebo 0.3%; for serum iron, mean change from baseline: placebo 1.4
Source text: as §1, §2, §3
Part 2, MAD Cohort 5 (C5) participants received either the compound of Formula I-11, 100 mg (n=8) or placebo (n=2) on Days 1, 2, 3, 4, 5, 6, 7. The last dose was administered on the morning of Day 7. Serial PK sample collection for the determination of steady-state concentrations of the compound of Formula I-11 was done at pre-dose and up to 24 hours post-dose, beginning on Day 1, 4 and 7. Participants returned for follow-up visits on […], and Day 30 for an end-of-study visit.
Pharmacodynamic endpoints: Protocol-specified endpoints were assessed at baseline and regularly throughout the study period. These assessments included measurements of serum iron, transferrin saturation (calculated as serum iron/total iron-binding capacity), serum ferritin, serum hepcidin, and reticulocyte hemoglobin content, serum cholesterol, LDL, and HDL cholesterol. Measurements of all pharmacodynamic end points were made using standard clinical laboratory tests. Hepcidin analysis was performed using an ELISA kit from Intrinsic LifeSciences (Intrinsic Hepcidin IDx™ ELISA kit).

[4] = tested on: mouse model of chronic kidney disease (CKD); experiment: Adenine-induced mouse model of chronic kidney disease; format: in vivo, C57Bl/6 mice
Protocol: To induce chronic kidney disease (CKD), 6-week-old C57Bl/6 mice were dosed daily via PO administration with 50 mg/kg of adenine or vehicle. After six weeks of adenine administration, a representative group of mice were taken down and tested to confirm anemia. Concomitantly, the remainder of the CKD mice began dosing with either vehicle or the compound of Formula I-42 5 mg/kg PO daily. Mice were dosed with vehicle or the compound of Formula I-42 while still receiving daily adenine for 10 days. The study was terminated at 52 days and hematology (Heska, Element HT-5), serum hepcidin (Intrinsic Biosciences, Hepcidin Murine Compete), and serum iron (Bioassay Systems, QuantiChrom Kit) levels were assessed.

[5] = tested on: mouse model of IRIDA; experiment: TMPRSS6 siRNA mouse model of IRIDA; format: in vivo, C57BL/6 mice
Protocol: To establish a murine model of IRIDA, eight-week-old male C57BL/6 mice were dosed intravenously with lipid encapsulated siRNA targeted against either Luciferase (control) or TMPRSS6 (0.75 mg/kg). Following confirmation of disease at day 8 post initial siRNA administration, once-daily oral dosing with the compound of Formula I-42 (5 mg/kg) or vehicle commenced. A second siRNA administration was given on day 10. Studies were terminated 18 days post initial siRNA administration. Hematological parameters, serum iron, and serum hepcidin were measured at the end of the study.

[6] = fourth dose level (350 mg daily)
[7] = second dose level (100 mg daily)
[8] = third dose level (200 mg daily)
[9] = 5 mg/kg PO daily for 10 days, Day 52
[10] = 5 mg/kg PO daily, after 10 days
[11] = 5 mg/kg once-daily oral from day 8, study termination (day 18)
[12] = 5 mg/kg once-daily oral from day 8, study termination (day 18), with TMPRSS6 siRNA

COc1cc2c(-c3cnn4cc(N5CCC(N6CCN(C)CC6)CC5)cnc34)ccnc2cc1F [Formula I-11]
well tolerated dose level, repeated dose ([1]; after 7 daily oral doses, healthy participants): up to 200 mg | participants who discontinued the study due to AEs ([1]; human, in vivo): 25% | AEs reported in ≥2 subjects and higher than placebo ([1]; in vivo): headache, nausea, vomiting, diarrhea, gastroenteritis, chills, pyrexia, myalgia, decreased appetite, lymphopenia, neutropenia, abdominal discomfort, abdominal pain (upper), dizziness, fatigue, rhinorrhea, tonsillitis, and liver enzyme increases | AEs that led to study drug discontinuation in three or more participants ([1]; in vivo): lymphopenia and chills | onset of lymphopenia (% change in lymphocytes) ([1]; in vivo): 5 days | reversibility of lymphopenia / lymphocyte changes ([1]; in vivo): reversible | serious adverse events ([1]; in vivo): no serious adverse events | severity of the majority of AEs ([1]; in vivo): mild or moderate in severity | subjects who discontinued the study due to AEs ([1]; in vivo): none | subjects with increases in ALT >2×ULN ([1]; in vivo): 3 subjects | development of lymphopenia (lymphocyte counts <1.0×10^9 cells/L) ([1]; in vivo, po): ≥ 6 day | well tolerated dose level, single dose ([1]; single oral dose, healthy participants): up to 450 mg | half-life ([2]; both sexes, human, in vivo, oral, healthy participants, approximately): 10 to 15 h | Mean AUC and Cmax, dose proportionality ([2]; multiple doses from 50-200 mg): greater than dose-proportional increases | time to decrease in hepcidin ([3]; Cohort 5 (100 mg), after administration of the first dose, as early as): 4 h | transferrin saturation, mean percent change from baseline ([3]; first dose level (50 mg daily)): 1.6% | serum iron, mean change from baseline ([3]; first dose level (50 mg daily)): 1.48 μM/L | transferrin saturation, mean percent change from baseline [3, 6]: 30.1% | serum iron, mean change from baseline [3, 6]: 17.71 μM/L | transferrin saturation, mean percent change from baseline [3, 7]: 1.5% | serum iron, mean change from baseline [3, 7]: 0.59 μM/L | transferrin saturation, mean percent change from baseline [3, 8]: 7.5% | serum iron, mean change from baseline [3, 8]: 5.11 μM/L | serum ferritin ([3]; MAD cohort participants): decreases in serum ferritin | day of peak increase in reticulocyte hemoglobin content ([3]; MAD cohorts): 7 days | start of increase in reticulocyte hemoglobin content ([3]; MAD cohorts 1-4, day post-dosing): 4 days | effect on serum ferritin, single vs multiple doses ([3]; SAD and MAD cohorts): observed only after multiple doses | time to decrease in total cholesterol ([3]; SAD cohorts): ≤ 24 h | day of peak serum iron concentrations ([3]; multiple dose regimen, day of treatment): Day 3 or 4 | transferrin saturation, observed PD response ([3]; once-daily doses of 50 mg): not substantially different from placebo | serum hepcidin vs placebo ([3]; once-daily oral over 7 days, effect similar at 50 mg, 100 mg and 200 mg): robust decreases in baseline hepcidin | hemoglobin content of reticulocytes ([3]; repeated administration): increases over baseline in the hemoglobin content of reticulocytes | serum iron ([3]; single (SAD) or once-daily (MAD) oral administration): rapid, robust, and sustained dose-related increases in serum iron | transferrin saturation, observed PD response ([3]; single dose of 30 mg, liquid formulation): not substantially different from placebo | time of peak effect on serum iron ([3]; single dose, Day 2, post-dose): 24 h | transferrin saturation ([3]; single or repeated doses of 100 mg or above): sustained, dose-related increases in transferrin saturation | total cholesterol ([3]; single or repeated oral administration (Cohorts 1-4)): decreases in total cholesterol

COc1cc2c(-c3cnn4cc(N5CC(N6CCN(C)CC6)C5)cnc34)ccnc2cc1F [Formula I-42]
hematocrit, higher than vehicle-treated mice receiving adenine [4, 9]: 10.2% | hemoglobin, higher than vehicle-treated mice receiving adenine [4, 9]: 10.7% | red blood cell counts, higher than vehicle-treated mice receiving adenine [4, 9]: 7.1% | reticulocyte hemoglobin content, higher than vehicle-treated mice receiving adenine [4, 9]: 10.4% | increase in serum iron values vs vehicle treated mice receiving adenine [4, 10]: 108.2% | reduction in serum hepcidin values vs vehicle treated mice receiving adenine [4, 10]: 85.4% | disease phenotype ([5]; 5 mg/kg once-daily oral): rescued the disease phenotype | serum hepcidin vs vehicle-treated mice receiving TMPRSS6 siRNA [5, 11]: decreased serum hepcidin | serum iron vs vehicle-treated mice receiving TMPRSS6 siRNA [5, 11]: increased serum iron | hematocrit vs vehicle-treated mice [5, 12]: increase | hemoglobin levels vs vehicle-treated mice [5, 12]: increase | red blood cell counts vs vehicle-treated mice [5, 12]: increase
